Data reported in patent US8486654B2, “Compositions and methods for measuring 3,6-L-AHG transferase activity and 3,6-L-AHG” (Samsung Electronics Co., Ltd., priority 2010, dated 2013).

Test system: 3,6-L-AHG transferase
Assay: Quantitative analysis of 3,6-L-AHG with the final active fraction and NADP^+ (absorbance at 339 nm)
Format: biochemical, Saccharophagus degradans
Conditions: 50 minute reaction, relative concentrations 1, 0.5, 0.25, 0.1 and 0.05 (1 = 20 mg/mL), FIG. 1
Protocol: 7.5 μl of the final active fraction obtained in Preparation Example 2, 0.1 mM of NADP^+, and 50 mM of Tris-HCl (pH 8.0) are mixed to prepare 100 μl of a composition for quantitative analysis of 3,6-L-AHG.
An amount of 3,6-L-AHG is added to various 100 μl samples of the composition for quantitative analysis of 3,6-L-AHG obtained in Preparation Example 4 to achieve dilution factors for the 3,6-L-AHG of 1, 0.5, 0.25, 0.1 and 0.05 in terms of relative concentrations. A relative 3,6-L-AHG concentration of 1 corresponds to 20 mg/mL. Reaction is carried out for 50 minutes, and then absorbance is measured at 339 nm using a microplate spectrophotometer (Bio-Tek Instruments, Inc.) according to the End-point UV method.

amount of NADPH produced versus amount of 3,6-L-AHG in the sample: linearly related
SMILES: O=C[C@@H](O)[C@@H]1OC[C@H](O)[C@H]1O [3,6-L-AHG, 3,6-anhydro-L-galactose]
